Read-outs that look alike come from different tables or passages of the source.
Tests used:
IKZF1 = IKZF1 (Homo sapiens, UniProt Q13422+Q96SW2); assay: Prolabel quantification of IKZF1 protein levels in 293GT cells; type: cell-based; settings: Prolabel assay, read-out: IKZF1 EC50
Method: (§1) The Prolabel system from DiscoverX was used to develop high-throughput and quantitative assays to measure changes in IKZF1, IKZF2 and GSPT1 protein levels in response to compounds. The prolabel tag was derived from the alpha fragment of beta galactosidase and has the following protein sequence: mssnslavvlqrrdwenpgvtqlnrlaahppfaswrnseeartdrpsqqlrslnge. The complementary fragment of beta-galactosidase (from DiscoverX), is added to the prolabel tag to form an active beta galactosidase enzyme whose activity can be precisely measured. In this way, the levels of a fusion protein with the prolabel tag can be quantified in cell lysates.
(§2) Lentiviral vectors, based on the Invitrogen pLenti6.2/V5 DEST backbone, were constructed that placed the prolabel tag upstream of IKZF1, IKZF2 or GSPT1 and expressed the fusion protein from a CMV promoter.
(§3) To ensure moderate and consistent expression of the prolabel fusion proteins across all cells in the population, stable cell lines were constructed from cells expressing a single copy of the construct. Lentivirus packaged with the constructs was made using the Virapower kit from Invitrogen.
(§4) The levels of prolabel tagged fusion proteins in compound treated cell lines were measured as follows:
(§5) Day 1, Cells were diluted to 1.0×10^6 cells/ml in normal growth medium. 17.5 μL of cells were plated in each well of a solid white 384 well plate. Plates were incubated overnight in a 37° C. tissue culture incubator.
(§6) Day 2, Serial dilutions of compounds were made in 384 well plates from 10 mM stocks. 15 μL of DMSO was added to each well of a 384 well plate. In the first column 15 μL of stock compound was added. The solution was mixed and 15 μL was transferred to the next column. This was repeated until 20 two-fold dilutions were prepared. 2.5 μL of diluted compounds were transferred into 60 μL of cell culture medium in another 384 well plate, and mixed well. 2.5 μL of this mixture was added to the plated cells. The final DMSO concentration was 0.5% and the highest concentration of compound was 50 μM. Plates were incubated overnight (e.g., about 14 h, 18 h, or 24 h) in a 37° C. tissue culture incubator.
(§7) Day 3, Plates were removed from the incubator and allowed to equilibrate at rt for 30 minutes. Prolabel substrate (DiscoverX PathHunter Prolabel Detection Kit, User manual: 93-0180) was added as described by the manufacturers protocols. Plates were incubated at rt for three hours and luminescence was read using an Envision reader (Perkin Elmer) Data was analyzed and visualized using the Spotfire software package.

IKZF2 = IKZF2 (Homo sapiens, UniProt Q96SW2+Q9UKS7); assay: Prolabel quantification of IKZF2 protein levels in 293GT cells; type: cell-based
Sequence of IKZF2 (Q9UKS7 whole entry): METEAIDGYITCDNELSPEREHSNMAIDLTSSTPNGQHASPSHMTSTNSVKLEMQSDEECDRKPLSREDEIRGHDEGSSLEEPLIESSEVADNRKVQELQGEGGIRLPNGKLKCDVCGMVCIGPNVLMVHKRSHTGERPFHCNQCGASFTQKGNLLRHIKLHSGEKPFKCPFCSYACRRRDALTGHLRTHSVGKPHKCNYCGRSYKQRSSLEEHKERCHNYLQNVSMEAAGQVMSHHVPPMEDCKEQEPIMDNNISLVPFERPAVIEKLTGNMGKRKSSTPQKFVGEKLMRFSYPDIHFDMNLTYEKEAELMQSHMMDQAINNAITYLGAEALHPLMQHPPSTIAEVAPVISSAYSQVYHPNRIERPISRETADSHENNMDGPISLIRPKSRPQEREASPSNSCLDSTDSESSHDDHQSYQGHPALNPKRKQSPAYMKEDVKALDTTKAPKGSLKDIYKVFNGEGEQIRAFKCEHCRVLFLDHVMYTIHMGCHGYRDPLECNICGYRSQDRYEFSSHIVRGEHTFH
Sequence of IKZF2 (Q96SW2 whole entry): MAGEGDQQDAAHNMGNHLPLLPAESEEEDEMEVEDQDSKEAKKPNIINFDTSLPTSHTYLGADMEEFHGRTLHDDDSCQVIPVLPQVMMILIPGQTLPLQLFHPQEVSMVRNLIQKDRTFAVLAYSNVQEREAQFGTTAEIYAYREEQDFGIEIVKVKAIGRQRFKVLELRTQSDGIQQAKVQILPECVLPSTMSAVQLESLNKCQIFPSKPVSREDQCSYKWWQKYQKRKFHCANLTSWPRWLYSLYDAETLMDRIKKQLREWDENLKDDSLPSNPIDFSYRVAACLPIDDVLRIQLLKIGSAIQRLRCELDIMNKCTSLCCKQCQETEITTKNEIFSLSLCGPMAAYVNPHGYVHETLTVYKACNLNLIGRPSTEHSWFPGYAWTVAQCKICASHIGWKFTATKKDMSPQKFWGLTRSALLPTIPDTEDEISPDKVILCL
Sequence of IKZF2 (Q16531 whole entry partner): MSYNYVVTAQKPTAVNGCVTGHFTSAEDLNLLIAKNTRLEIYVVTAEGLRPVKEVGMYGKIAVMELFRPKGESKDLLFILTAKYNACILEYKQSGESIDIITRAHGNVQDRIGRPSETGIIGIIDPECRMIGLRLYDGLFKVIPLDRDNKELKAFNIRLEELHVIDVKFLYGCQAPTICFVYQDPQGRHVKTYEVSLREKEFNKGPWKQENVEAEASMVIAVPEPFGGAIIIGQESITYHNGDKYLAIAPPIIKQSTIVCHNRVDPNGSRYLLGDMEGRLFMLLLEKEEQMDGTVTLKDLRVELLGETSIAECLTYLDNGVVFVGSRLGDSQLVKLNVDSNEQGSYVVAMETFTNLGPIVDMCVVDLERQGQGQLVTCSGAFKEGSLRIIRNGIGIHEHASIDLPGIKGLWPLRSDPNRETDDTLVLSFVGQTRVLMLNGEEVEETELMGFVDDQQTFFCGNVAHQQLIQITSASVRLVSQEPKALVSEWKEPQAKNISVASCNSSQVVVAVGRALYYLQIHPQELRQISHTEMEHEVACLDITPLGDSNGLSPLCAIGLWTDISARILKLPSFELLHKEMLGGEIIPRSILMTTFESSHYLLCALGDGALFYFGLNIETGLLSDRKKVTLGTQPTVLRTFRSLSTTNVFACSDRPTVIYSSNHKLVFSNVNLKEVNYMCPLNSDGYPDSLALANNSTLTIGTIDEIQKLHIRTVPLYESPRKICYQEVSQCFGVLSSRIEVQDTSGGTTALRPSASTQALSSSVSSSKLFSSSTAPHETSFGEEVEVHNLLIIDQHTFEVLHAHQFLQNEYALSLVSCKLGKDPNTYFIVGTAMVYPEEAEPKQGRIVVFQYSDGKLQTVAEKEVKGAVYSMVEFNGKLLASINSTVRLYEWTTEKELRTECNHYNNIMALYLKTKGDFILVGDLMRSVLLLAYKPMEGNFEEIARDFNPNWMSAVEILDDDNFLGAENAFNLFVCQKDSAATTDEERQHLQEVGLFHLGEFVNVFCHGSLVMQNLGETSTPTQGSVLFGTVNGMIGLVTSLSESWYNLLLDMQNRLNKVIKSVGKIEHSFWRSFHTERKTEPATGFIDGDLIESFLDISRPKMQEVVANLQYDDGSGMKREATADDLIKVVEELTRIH
Method: as §1, §2, §3, §4, §5, §6, §7

[1] = 24 h, 10 μM, 24 h, 293GT cells; read-out: IKZF2 % protein reduction at 10 μM, 24 h
[2] = Prolabel assay, 293GT cells; read-out: IKZF2 EC50
[3] = 10 μM, 24 h, 293GT cells; read-out: IKZF2 % protein reduction at 10 μM, 24 h

Sequence of IKZF1 (Q13422 whole entry, the tested form may be a part): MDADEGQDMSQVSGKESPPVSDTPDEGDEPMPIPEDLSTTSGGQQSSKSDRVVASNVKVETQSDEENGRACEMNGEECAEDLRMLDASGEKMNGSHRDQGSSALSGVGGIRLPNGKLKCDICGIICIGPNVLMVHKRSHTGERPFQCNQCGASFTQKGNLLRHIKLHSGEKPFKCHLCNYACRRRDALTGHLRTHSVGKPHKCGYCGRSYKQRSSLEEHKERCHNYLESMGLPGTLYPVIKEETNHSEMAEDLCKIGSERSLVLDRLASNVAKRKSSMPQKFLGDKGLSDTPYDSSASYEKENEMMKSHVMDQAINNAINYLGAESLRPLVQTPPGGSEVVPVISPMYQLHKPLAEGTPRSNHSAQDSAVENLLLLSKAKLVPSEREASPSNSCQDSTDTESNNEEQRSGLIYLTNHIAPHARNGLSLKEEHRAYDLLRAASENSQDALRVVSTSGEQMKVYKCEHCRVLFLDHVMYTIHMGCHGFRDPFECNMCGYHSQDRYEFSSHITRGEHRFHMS
Sequence of IKZF1 (Q96SW2 whole entry, the tested form may be a part): as the sequence (Q96SW2 whole entry) above
Sequence of IKZF1 (Q16531 whole entry partner, the tested form may be a part): as the sequence (Q16531 whole entry partner) above

Structure (SMILES) | DC50 (IKZF1) | inhibition at 10 µM (IKZF2; [1]) | DC50 (IKZF2; [2]) | IKZF2 protein levels as compared to the control (DMSO) (IKZF2; Prolabel assay in HEK293GT cells, bar graph) | inhibition at 10 µM (IKZF2; [3])
O=C1CCC(N2Cc3cc(C4CCN(Cc5cnc[nH]5)CC4)ccc3C2=O)C(=O)N1 (stereo not shown) [Compound I-120, 3-(5-(1-((1H-imidazol-5-yl)methyl)piperidin-4-yl)-1-oxoisoindolin-2-yl)piperidine-2,6-dione] | > 30 µM | 50% | 0.83 µM |  | 
CCN1CCC(c2ccc3c(c2)CN(C2CCC(=O)NC2=O)C3=O)CC1 (stereo not shown) [Compound I-1, 3-(5-(1-ethylpiperidin-4-yl)-1-oxoisoindolin-2-yl)piperidine-2,6-dione] | > 30 µM |  | 0.067 µM |  | 60%
CCOc1ccc(CN2CCC(c3ccc4c(c3)CN(C3CCC(=O)NC3=O)C4=O)CC2)cc1 (stereo not shown) [Compound I-287, 3-(5-(1-(4-ethoxybenzyl)piperidin-4-yl)-1-oxoisoindolin-2-yl)piperidine-2,6-dione] | > 30 µM | 70% | 0.018 µM |  | 
O=C1CCC(N2Cc3cc(C4CCN(Cc5cccc(Cl)c5)CC4)ccc3C2=O)C(=O)N1 (stereo not shown) [Compound I-16, 3-(5-(1-(3-chlorobenzyl)piperidin-4-yl)-1-oxoisoindolin-2-yl)piperidine-2,6-dione] | > 30 µM | 70% | 0.008 µM |  | 
CCCc1ccc(CN2CCC(c3ccc4c(c3)CN(C3CCC(=O)NC3=O)C4=O)CC2)cc1 (stereo not shown) [Compound I-75, 3-(1-oxo-5-(1-(4-propylbenzyl)piperidin-4-yl)isoindolin-2-yl)piperidine-2,6-dione] | > 30 µM | 80% | 0.02 µM |  | 
O=C1CCC(N2Cc3cc(C4CCN(CC5CCOCC5)CC4)ccc3C2=O)C(=O)N1 (stereo not shown) [Compound I-13, 3-(1-oxo-5-(1-((tetrahydro-2H-pyran-4-yl)methyl)piperidin-4-yl)isoindolin-2-yl)piperidine-2,6-dione] | > 30 µM | 60% | 0.029 µM |  | 
O=C1CCC(N2Cc3cc(C4CCN(Cc5ccccc5C(F)(F)F)CC4)ccc3C2=O)C(=O)N1 (stereo not shown) [Compound I-106, 3-(1-oxo-5-(1-(2-(trifluoromethyl)benzyl)piperidin-4-yl)isoindolin-2-yl)piperidine-2,6-dione] | > 30 µM | 50% | 0.014 µM |  | 
CC(C)n1nccc1CN1CCC(c2ccc3c(c2)CN(C2CCC(=O)NC2=O)C3=O)CC1 (stereo not shown) [Compound I-289, 3-(5-(1-((1-isopropyl-1H-pyrazol-5-yl)methyl)piperidin-4-yl)-1-oxoisoindolin-2-yl)piperidine-2,6-dione] | > 30 µM | 60% | 0.076 µM |  | 
O=C1CCC(N2Cc3cc(C4CCN(C(CO)c5ccccc5)CC4)ccc3C2=O)C(=O)N1 (single isomer, unassigned) [Compound I-249] | > 30 µM | 40% | 0.85 µM |  | 
O=C1CCC(N2Cc3cc(C4=CCN(Cc5ccccc5)CC4)ccc3C2=O)C(=O)N1 (stereo not shown) [Compound I-172, 3-(5-(1-benzyl-1,2,3,6-tetrahydropyridin-4-yl)-1-oxoisoindolin-2-yl)piperidine-2,6-dione] | 0.25 µM |  | 0.103 µM |  | 60%
CC(C)Sc1ccc(CN2CCC(c3ccc4c(c3)CN(C3CCC(=O)NC3=O)C4=O)CC2)cc1 (stereo not shown) [Compound I-228, 3-(5-(1-(4-(isopropylthio)benzyl)piperidin-4-yl)-1-oxoisoindolin-2-yl)piperidine-2,6-dione] | > 30 µM | 70% | 0.01 µM |  | 
Cn1ncc(CN2CCC(c3ccc4c(c3)CN(C3CCC(=O)NC3=O)C4=O)CC2)c1N (stereo not shown) [Compound I-124, 3-(5-(1-((5-amino-1-methyl-1H-pyrazol-4-yl)methyl)piperidin-4-yl)-1-oxoisoindolin-2-yl)piperidine-2,6-dione] | > 30 µM | 40% | 9.8 µM |  | 
COC1CCN(c2ccc(CN3CCC(c4ccc5c(c4)CN(C4CCC(=O)NC4=O)C5=O)CC3)cc2)CC1 (stereo not shown) [Compound I-227, 3-(5-(1-(4-(4-methoxypiperidin-1-yl)benzyl)piperidin-4-yl)-1-oxoisoindolin-2-yl)piperidine-2,6-dione] | > 30 µM | 60% | 0.004 µM |  | 
O=C1CCC(N2Cc3cc(C4CCN([C@@H](CO)c5ccccc5)CC4)ccc3C2=O)C(=O)N1 (single isomer, unassigned) [Compound I-202] | > 30 µM | 40% | 0.59 µM |  | 
O=C1CCC(N2Cc3cc(C4CCN(Cc5ccc6ccccc6c5)CC4)ccc3C2=O)C(=O)N1 (stereo not shown) [Compound I-47, 3-(5-(1-(naphthalen-2-ylmethyl)piperidin-4-yl)-1-oxoisoindolin-2-yl)piperidine-2,6-dione] | > 30 µM | 80% | 0.008 µM |  | 
O=C1CCC(N2Cc3cc(C4CCN(Cc5cccc(OC(F)(F)F)c5)CC4)ccc3C2=O)C(=O)N1 (stereo not shown) [Compound I-54, 3-(1-oxo-5-(1-(3-(trifluoromethoxy)benzyl)piperidin-4-yl)isoindolin-2-yl)piperidine-2,6-dione] | > 30 µM | 60% | 0.02 µM |  | 

Further lines, with some results ahead:

DC50 (IKZF1) | inhibition at 10 µM (IKZF2; [1]) | DC50 (IKZF2; [2]) | IKZF2 protein levels as compared to the control (DMSO) (IKZF2; Prolabel assay in HEK293GT cells, bar graph) | Structure (SMILES) | inhibition at 10 µM (IKZF2; [3])
> 30 µM | 70% | 0.076 µM |  | Nc1ncc(CN2CCC(c3ccc4c(c3)CN(C3CCC(=O)NC3=O)C4=O)CC2)cn1 (stereo not shown) [Compound I-122, 3-(5-(1((2-aminopyrimidin-5-yl)methyl)piperidin-4-yl)-1-oxoisoindolin-2-yl)piperidine-2,6-dione] | 
> 30 µM | 60% | 1.3 µM |  | O=C1CCC(N2Cc3cc(C4CCN(Cc5ccc6[nH]c(=O)[nH]c6c5)CC4)ccc3C2=O)C(=O)N1 (stereo not shown) [Compound I-259, 3-(1-oxo-5-(1-((2-oxo-2,3-dihydro-1H-benzo[d]imidazol-5-yl)methyl)piperidin-4-yl)isoindolin-2-yl)piperidine-2,6-dione] | 
> 30 µM | 75% | 0.003 µM |  | O=C1CCC(N2Cc3cc(C4CCN(Cc5cccc(OC(F)F)c5)CC4)ccc3C2=O)C(=O)N1 (stereo not shown) [Compound I-79, 3-(5-(1-(3-(difluoromethoxy)benzyl)piperidin-4-yl)-1-oxoisoindolin-2-yl)piperidine-2,6-dione] | 
> 30 µM | 60% | 0.023 µM |  | O=C1CCC(N2Cc3cc(C4CCN(CC5CC5)CC4)ccc3C2=O)C(=O)N1 (stereo not shown) [Compound I-3, 3-(5-(1-(cyclopropylmethyl)piperidin-4-yl)-1-oxoisoindolin-2-yl)piperidine-2,6-dione] | 
> 30 µM | 60% | 1.5 µM |  | Cc1cc2nc(CN3CCC(c4ccc5c(c4)CN(C4CCC(=O)NC4=O)C5=O)CC3)cc(O)n2n1 (stereo not shown) [Compound I-208, 3-(5-(1-((7-hydroxy-2-methylpyrazolo[1,5-a]pyrimidin-5-yl)methyl)piperidin-4-yl)-1-oxoisoindolin-2-yl)piperidine-2,6-dione] | 
> 30 µM | 60% | 0.25 µM |  | O=C(O)Cc1ccc(CN2CCC(c3ccc4c(c3)CN(C3CCC(=O)NC3=O)C4=O)CC2)cc1 (stereo not shown) [Compound I-231, 2-(4-((4-(2-(2,6-dioxopiperidin-3-yl)-1-oxoisoindolin-5-yl)piperidin-1-yl)methyl)phenyl)acetic acid] | 
> 25 µM | 80% | 0.003 µM | decreased | O=C1CCC(N2Cc3cc(C4CCN(Cc5cccc(S(=O)(=O)N6CCOCC6)c5)CC4)ccc3C2=O)C(=O)N1 (stereo not shown) [Compound I-236, 3-(5-(1-(3-(morpholinosulfonyl)benzyl)piperidin-4-yl)-1-oxoisoindolin-2-yl)piperidine-2,6-dione] | 
> 30 µM | 80% | 0.013 µM |  | O=C1CCC(N2Cc3cc(C4CCN(Cc5ccc6c(c5)OC(F)(F)O6)CC4)ccc3C2=O)C(=O)N1 (stereo not shown) [Compound I-87, 3-(5-(1-((2,2-difluorobenzo[b][1,3]dioxol-5-yl)methyl)piperidin-4-yl)-1-oxoisoindolin-2-yl)piperidine-2,6-dione] | 
> 30 µM | 60% | 0.039 µM |  | O=C1CCC(N2Cc3cc(C4CCN(Cc5c(F)cccc5F)CC4)ccc3C2=O)C(=O)N1 (stereo not shown) [Compound I-24, 3-(5-(1-(2,6-difluorobenzyl)piperidin-4-yl)-1-oxoisoindolin-2-yl)piperidine-2,6-dione] | 

Reference: patent publication US11053218B2, “3-(1-oxoisoindolin-2-yl)piperidine-2,6-dione derivatives and uses thereof” (Novartis AG, priority 2017, dated 2021)
